This is an account of results in patent US9221815B2, “Solid state form of vemurafenib choline salt” (ratiopharm GmbH, priority 2012, dated 2015).

For data set [1] the following is noted: amorphous form; cited from earlier work.
For data set [2] the following is noted: in accordance with WO 2010/114928 and WO 2010/129570; cited from earlier work.

Where two headings read alike, the source gives them in different places.

Take `CCCS(=O)(=O)Nc1ccc(F)c(C(=O)c2c[nH]c3ncc(-c4ccc(Cl)cc4)cc23)c1F` [Amorphous Vemurafenib]: the “Stability (in words)” value in data set [1] is “not stable”.
Take `CCCS(=O)(=O)Nc1ccc(F)c(C(=O)c2c[nH]c3ncc(-c4ccc(Cl)cc4)cc23)c1F.C[N+](C)(C)CCO` [Vemurafenib Choline crystalline C1]: the “Period stable upon storage” value is, setting by setting: (45° C. and 75% relative humidity (RH)) “at least 2 weeks”; (ambient conditions (room temperature and atmospheric humidity)) “at least 7 months”.
In the case of `CCCS(=O)(=O)Nc1ccc(F)c(C(=O)c2c[nH]c3ncc(-c4ccc(Cl)cc4)cc23)c1F` [Vemurafenib, propane-1-sulfonic acid {3-[5-(4-chlorophenyl)-1H-pyrrolo[2,3-b]pyridine-3-carbonyl]-2,4-difluoro-phenyl}-amide], the “Solubility (in words)” value in data set [2] is “extremely low solubility”.
